One may read the IC50 as the concentration that inhibits the measured activity by half. The pKa is the pH at which an ionisable group is half protonated. Broadly, the Ki is a dissociation constant, usually derived from enzyme kinetics or from competition with a known ligand. A word on the koff: it is a measure of how fast the partners let go of each other. As usually defined, the kon is a measure of how fast the partners come together. By Kd is commonly meant a measure of binding affinity in units of concentration. A low value points to a tighter complex.

For one data set, the target named is human α4β2 AChR (Homo sapiens, UniProt P17787+P43681). The experiment in a line: cell-based. The data set is classed as cell-based.
The conditions of data set [1]: ref Nangia et al., 1996; cited from earlier work.
For data set [2], the target named is [^3H]imipramine binding sites at the human α4β2 AChR (Homo sapiens, UniProt P17787+P43681). The conditions noted are these: for ΔG^20: calculated from Ki, Eq. (4), 293 K.
For data set [3] the following is noted: therapeutic doses, ref Glotzbach and Preskorn, 1982; cited from earlier work.
Data set [4] addresses T1, hα4β2 AChR (Homo sapiens, UniProt P17787+P43681). The experiment in a line: Thermodynamic parameters of imipramine binding. The conditions noted are these: for Ea (dissociation process): Arrhenius plot; for ΔH°: van't Hoff plot; for ΔG^20: Eq. (8); for ΔH^+ (enthalpy change of the transition state): Eq. (10).
For data set [5], the target named is T1, hα4β2 AChR. The format is binding. The conditions noted are these: for koff: 20 °C; for kon: kon = koff·Ka.
Data set [6] concerns the target T1, hα4β2 AChR. Nature of the data set: Equilibrium binding of [3H]imipramine to HEK293-hα4β2 AChR membranes.
Setting [7] is: desensitized state, presence of 1 μM (−)-cytisine.
[8] abbreviates: resting state, presence of k-BTx.
Where [9] appears, read: Ki, resting state, absence of k-BTx (no ligand).
Where [10] appears, read: resting state, absence of k-BTx (no ligand).
[11] abbreviates: resting state, absence of k-BTx.
[12] abbreviates: Epibatidine treated column (desensitized state).
Setting [13] is: κ-BTx treated column (resting state).

Where “and” joins values, the source holds several entries; their conditions need not be identical. Equal entries are not always repeated. Structures can show the parent of a compound that is named as a salt. Where two headings read alike, the source gives them in different places.

Consider `CNC1(C)C2CCC(C2)C1(C)C` (racemic) [(±)-Mecamylamine, (±)-mecamylamine hydrochloride], for which the half-inhibitory concentration (IC50) came to 3 ± 0.7 µM against human α4β2 AChR; 209 ± 34 µM in data set [2] (IC50, desensitized state, presence of 1 μM (−)-cytisine); 135 ± 19 µM in data set [2] (IC50, resting state, presence of k-BTx). Moreover, the “nH (Hill coefficient)” value at human α4β2 AChR worked out at 1.17 ± 0.12; in data set [2] (setting [7]), 0.58 ± 0.06; in data set [2] (setting [8]), 0.53 ± 0.05. The pKa in data set [1] is 11.4. Further, the “inhibition of specific [3H]imipramine binding” value in data set [2] (at maximum concentration tested, resting and desensitized states) is ~ 70%.

Regarding `Clc1ccc(C2CC3CCC2N3)cn1` (racemic) [(±)-epibatidine, (±)-Epibatidine], at human α4β2 AChR (activation of hα4β2 AChR, Ca2+ influx in HEK293-hα4β2 cells), the “nH (Hill coefficient)” value turned out to be 1.03 ± 0.04.

Turning to `CN(C)CCC=C1c2ccccc2CCc2ccccc21` [Amitriptyline, amitriptyline hydrochloride], the concentration for half-maximal inhibition (IC50) at human α4β2 AChR worked out at 2.2 ± 0.6 µM. For the same molecule, the results for the “nH (Hill coefficient)” value (at human α4β2 AChR; in data set [2] (setting [10])) were 1.50 ± 0.08 and 0.98 ± 0.11, respectively. In addition, the Ki in data set [2] (setting [9]) came out at 1100 ± 100 nM. For the same molecule, the “ΔG^20” value in data set [2] (setting [11]) was -33.3 ± 0.3 kJ/mol. In addition, the “concentration in the rat brain” value in data set [3] is 1 to 10 µM.

With `CN(C)CCC=C1c2ccccc2COc2ccccc21` [Doxepin, doxepin hydrochloride], on human α4β2 AChR, it took 6.8 ± 1.6 µM to reach half-maximal inhibition (IC50) and the “nH (Hill coefficient)” value came to 1.32 ± 0.29. Further, the affinity in data set [2] corresponds to a Ki of 2100 ± 200 nM. Moreover, the “nH (Hill coefficient)” value in data set [2] (setting [10]) is reported as 0.73 ± 0.05. Also, the “ΔG^20” value in data set [2] (setting [11]) is -31.8 ± 0.3 kJ/mol.

As to `CN(C)CCCN1c2ccccc2CCc2ccccc21` [Imipramine, Imipramine hydrochloride], on human α4β2 AChR, the IC50 was determined as 5.4 ± 1.2 µM. Besides, the “nH (Hill coefficient)” value was 1.39 ± 0.13 at human α4β2 AChR, 0.84 ± 0.07 in data set [2] (setting [7]), 0.73 ± 0.04 in data set [2] (setting [10]) and 0.87 ± 0.07 in data set [2] (setting [8]). Further, the “−TΔS°” value at hα4β2 AChR [4] (setting [12]) is -24.8 kJ/mol and -24.8 ± 1.6 kJ/mol; on hα4β2 AChR [4] (setting [13]) it was -16.1 ± 2.3 kJ/mol. Also, the “Ea (dissociation process)” value on hα4β2 AChR [4] (setting [12]) stood at 12.4 ± 1.1 kJ/mol; at hα4β2 AChR [4] (setting [13]), 19.0 ± 1.9 kJ/mol. Moreover, the “ΔH°” value is -11.1 kJ/mol and -11.1 ± 1.6 kJ/mol on hα4β2 AChR [4] (setting [12]); -19.9 ± 2.3 kJ/mol on hα4β2 AChR [4] (setting [13]). For the same molecule, the “ΔG^20” value on hα4β2 AChR [4] (setting [12]) was -35.9 ± 2.0 kJ/mol; at hα4β2 AChR [4] (setting [13]), -35.8 ± 2.9 kJ/mol; on hα4β2 AChR [5] (Epibatidine treated column (desensitized state), Eq. (4)) it was -35.9 ± 0.1 kJ/mol; in data set [2] (desensitized state, presence of (−)-cytisine), -33.7 ± 0.2 kJ/mol; in data set [2] (setting [11]), -33.4 ± 0.2 kJ/mol. The “ΔH^+ (enthalpy change of the transition state)” value worked out at 9.9 ± 1.1 kJ/mol on hα4β2 AChR [4] (setting [12]) and 16.6 ± 1.9 kJ/mol on hα4β2 AChR [4] (setting [13]). Also, the Ka at hα4β2 AChR [5] (setting [12]) worked out at 2.52 ± 0.08 µM⁻¹; at hα4β2 AChR [5] (setting [13]) it was 2.54 ± 0.07 µM⁻¹. Moreover, the koff at hα4β2 AChR [5] (setting [12]) is 0.076 ± 0.002 s⁻¹; at hα4β2 AChR [5] (setting [13]), 0.09 ± 0.001 s⁻¹. Also, the values for the kon at hα4β2 AChR [5] (setting [12]) and on hα4β2 AChR [5] (setting [13]) were 192000 ± 3000 M⁻¹ s⁻¹ and 229000 ± 8000 M⁻¹ s⁻¹, respectively. Further, the inhibition constant Ki in data set [2] (Ki, desensitized state, presence of 1 μM (−)-cytisine) was 970 ± 100 nM; in data set [2] (setting [9]) it was 1100 ± 100 nM; in data set [2] (Ki, resting state, presence of 0.1 μM k-BTx), 930 nM.

As to [^3H]Imipramine, the “specific activity (Bmax, imipramine binding sites)” value on hα4β2 AChR [6] (HEK293-hα4β2 membranes, x-intersect of Rosenthal-Scatchard plot) is on record as 8.6 ± 0.5 pmol/mg protein. Further, binding at hα4β2 AChR [6] (resting/no ligand state, Rosenthal-Scatchard plot, 2 h at RT) was put at a Kd of 830 ± 80 nM.

The values above are taken from publication PMC4605392 (The international journal of biochemistry & cell biology, 2010).
